Reference: ChEMBL document CHEMBL3885881, “DrugMatrix”

Organism: Rattus norvegicus
Test: DrugMatrix - Regimen: Daily Repeat
Assay type: toxicity, organism-based, Sprague-Dawley
Set-up: regimen Daily Repeat, gender Male, age 6-8 weeks
Settings: in vivo, po, route oral GAVAGE, vehicle 100 % WATER; for ABSOLUTE BASOPHIL / ABSOLUTE EOSINOPHIL / ABSOLUTE LYMPHOCYTE / ABSOLUTE MONOCYTE / ABSOLUTE SEGMENTED NEUTROPHIL / BASOPHIL / EOSINOPHIL / ERYTHROCYTE COUNT / HEMATOCRIT / HEMOGLOBIN / LEUKOCYTE COUNT / LYMPHOCYTE / MEAN CORPUSCULAR HEMOGLOBIN / MEAN CORPUSCULAR HEMOGLOBIN CONCENTRATION / MEAN CORPUSCULAR VOLUME / MONOCYTE / NEUTROPHIL / NUCLEATED RED BLOOD CELLS / PLATELET COUNT: tissue Blood; for ALANINE AMINOTRANSFERASE / ALBUMIN / ALKALINE PHOSPHATASE / ASPARTATE AMINOTRANSFERASE / BLOOD UREA NITROGEN / CARBON DIOXIDE / CHLORIDE / CHOLESTEROL / CREATINE PHOSPHOKINASE / CREATININE / GLUCOSE / LACTATE DEHYDROGENASE / LIPASE / PHOSPHORUS / POTASSIUM / SODIUM / TOTAL BILIRUBIN / TOTAL PROTEIN / URIC ACID: tissue Plasma
[1] = 28 mg/kg, 120 h, dose level Low, time 5 day
[2] = 100 mg/kg, 72 h, dose level High, time 3 day
[3] = 100 mg/kg, 120 h, dose level High, time 5 day

## Cn1cc[nH]c1=S [METHIMAZOLE]
[1]
  ABSOLUTE BASOPHIL: 0 CELLS/uL
  ABSOLUTE EOSINOPHIL: 0 CELLS/uL
  ABSOLUTE LYMPHOCYTE: 6311.33 CELLS/uL
  ABSOLUTE MONOCYTE: 62 CELLS/uL
  ABSOLUTE SEGMENTED NEUTROPHIL: 560 CELLS/uL
  BASOPHIL: 0%
  EOSINOPHIL: 0%
  ERYTHROCYTE COUNT: 5.37 x10E6/uL
  HEMATOCRIT: 33.8%
  HEMOGLOBIN: 13.17 G/DL
  LEUKOCYTE COUNT: 6.93 x10E3/uL
  LYMPHOCYTE: 90.67%
  MEAN CORPUSCULAR HEMOGLOBIN: 24.57 pg
  MEAN CORPUSCULAR HEMOGLOBIN CONCENTRATION: 38.93 G/DL
  MEAN CORPUSCULAR VOLUME: 63.03 fL
  MONOCYTE: 0.67%
  NEUTROPHIL: 8.67%
  NUCLEATED RED BLOOD CELLS: 0.33 /100WBC
  PLATELET COUNT: 1274.33 x10E3/uL
  ALANINE AMINOTRANSFERASE: 41.33 u/L
  ALBUMIN: 4.13 G/DL
  ALKALINE PHOSPHATASE: 368.67 u/L
  ASPARTATE AMINOTRANSFERASE: 68.67 u/L
  BLOOD UREA NITROGEN: 19.67 mg/dL
  CARBON DIOXIDE: 30.33 mmol/L
  CHLORIDE: 101 MEQ/L
  CHOLESTEROL: 101.33 mg/dL
  CREATINE PHOSPHOKINASE: 173 u/L
  CREATININE: 0.18 mg/dL
  GLUCOSE: 143.67 mg/dL
  LACTATE DEHYDROGENASE: 143.67 u/L
  LIPASE: 9 u/L
  PHOSPHORUS: 10.27 mg/dL
  POTASSIUM: 4.87 MEQ/L
  SODIUM: 144.47 MEQ/L
  TOTAL BILIRUBIN: 0.17 mg/dL
  TOTAL PROTEIN: 6.43 G/DL
  URIC ACID: 0.53 mg/dL
[2]
  ABSOLUTE BASOPHIL: 0 CELLS/uL
  ABSOLUTE EOSINOPHIL: 0 CELLS/uL
  ABSOLUTE LYMPHOCYTE: 13500.67 CELLS/uL
  ABSOLUTE MONOCYTE: 119.33 CELLS/uL
  ABSOLUTE SEGMENTED NEUTROPHIL: 980 CELLS/uL
  BASOPHIL: 0%
  EOSINOPHIL: 0%
  ERYTHROCYTE COUNT: 5.56 x10E6/uL
  HEMATOCRIT: 35.97%
  HEMOGLOBIN: 14.1 G/DL
  LEUKOCYTE COUNT: 14.6 x10E3/uL
  LYMPHOCYTE: 92.67%
  MEAN CORPUSCULAR HEMOGLOBIN: 25.4 pg
  MEAN CORPUSCULAR HEMOGLOBIN CONCENTRATION: 39.2 G/DL
  MEAN CORPUSCULAR VOLUME: 64.73 fL
  MONOCYTE: 1%
  NEUTROPHIL: 6.33%
  NUCLEATED RED BLOOD CELLS: 0.67 /100WBC
  PLATELET COUNT: 1423.33 x10E3/uL
  ALANINE AMINOTRANSFERASE: 46.33 u/L
  ALBUMIN: 4.03 G/DL
  ALKALINE PHOSPHATASE: 326.67 u/L
  ASPARTATE AMINOTRANSFERASE: 72 u/L
  BLOOD UREA NITROGEN: 11 mg/dL
  CARBON DIOXIDE: 26 mmol/L
  CHLORIDE: 103 MEQ/L
  CHOLESTEROL: 84.67 mg/dL
  CREATINE PHOSPHOKINASE: 581 u/L
  CREATININE: 0.17 mg/dL
  GLUCOSE: 154.33 mg/dL
  LACTATE DEHYDROGENASE: 228.33 u/L
  LIPASE: 9 u/L
  PHOSPHORUS: 11.6 mg/dL
  POTASSIUM: 6.41 MEQ/L
  SODIUM: 143.17 MEQ/L
  TOTAL BILIRUBIN: 0.17 mg/dL
  TOTAL PROTEIN: 5.97 G/DL
  URIC ACID: 1.63 mg/dL
[3]
  ABSOLUTE BASOPHIL: 0 CELLS/uL
  ABSOLUTE EOSINOPHIL: 40.33 CELLS/uL
  ABSOLUTE LYMPHOCYTE: 11963 CELLS/uL
  ABSOLUTE MONOCYTE: 169.33 CELLS/uL
  ABSOLUTE SEGMENTED NEUTROPHIL: 727.33 CELLS/uL
  BASOPHIL: 0%
  EOSINOPHIL: 0.33%
  ERYTHROCYTE COUNT: 5.44 x10E6/uL
  HEMATOCRIT: 33.7%
  HEMOGLOBIN: 13.17 G/DL
  LEUKOCYTE COUNT: 12.9 x10E3/uL
  LYMPHOCYTE: 93%
  MEAN CORPUSCULAR HEMOGLOBIN: 24.23 pg
  MEAN CORPUSCULAR HEMOGLOBIN CONCENTRATION: 39.1 G/DL
  MEAN CORPUSCULAR VOLUME: 61.97 fL
  MONOCYTE: 1.33%
  NEUTROPHIL: 5.33%
  NUCLEATED RED BLOOD CELLS: 0 /100WBC
  PLATELET COUNT: 1288.67 x10E3/uL
  ALANINE AMINOTRANSFERASE: 33.33 u/L
  ALBUMIN: 3.97 G/DL
  ALKALINE PHOSPHATASE: 316.33 u/L
  ASPARTATE AMINOTRANSFERASE: 51.33 u/L
  BLOOD UREA NITROGEN: 17.33 mg/dL
  CARBON DIOXIDE: 21 mmol/L
  CHLORIDE: 104.67 MEQ/L
  CHOLESTEROL: 79.67 mg/dL
  CREATINE PHOSPHOKINASE: 460 u/L
  CREATININE: 0.19 mg/dL
  GLUCOSE: 165.33 mg/dL
  LACTATE DEHYDROGENASE: 433 u/L
  LIPASE: 11.33 u/L
  PHOSPHORUS: 10.1 mg/dL
  POTASSIUM: 5.88 MEQ/L
  SODIUM: 143.5 MEQ/L
  TOTAL BILIRUBIN: 0.2 mg/dL
  TOTAL PROTEIN: 6.17 G/DL
  URIC ACID: 1.43 mg/dL
